Measured values reported in patent US9453000B2, “Polycyclic compound” (EISAI R&D MANAGEMENT CO., LTD., priority 2007, dated 2016).
pIC50: −log10 of the molar value.

Tested on: Aβ42 production in rat primary neuronal culture
Experiment: Quantification of Aβ peptide in culture of neurons from rat fetus brain (Aβ ELISA)
Type: cell-based
Conditions: Primary cortical neuron, 72 h, rat primary cortical neurons (embryonic day 18 Wistar), three days after addition of the compound, Aβx-42 ELISA of medium, read-out: Aβ42 production reducing effect IC50
Method: Quantification of Aβ Peptide in Culture of Neurons from Rat Fetus Brain
(1) Rat Primary Neuronal Culture
Primary neuronal cultures were prepared from the cerebral cortex of embryonic day 18 Wistar rats (Charles River Japan, Yokohama, Japan). Specifically, the embryos were aseptically removed from pregnant rats under ether anesthesia. The brain was isolated from the embryo and immersed in an ice-cold L-15 medium (Invitrogen Corp. Cat #11415-064, Carlsbad, Calif., USA, or SIGMA L1518, for example). The cerebral cortex was collected from the isolated brain under a stereoscopic microscope. The cerebral cortex fragments collected were enzymatically treated in an enzyme solution containing 0.25% trypsin (Invitrogen Corp. Cat #15050-065, Carlsbad, Calif., USA) and 0.01% DNase (Sigma D5025, St. Louis, Mo., USA) at 37° C. for 30 minutes to disperse the cells. Here, the enzymatic reaction was stopped by adding inactivated horse serum to the solution. The enzymatically treated solution was centrifuged at 1,500 rpm for five minutes to remove the supernatant. 5 to 10 ml of a medium was added to the resulting cell mass. Neurobasal medium (Invitrogen Corp. Cat #21103-049, Carlsbad, Calif., USA) supplemented with 2% B27 supplement (Invitrogen Corp. Cat #17504-044, Carlsbad, Calif., USA), 25 μM 2-mercaptoethanol (2-ME, WAKO Cat #139-06861, Osaka, Japan), 0.5 mM L-glutamine (Invitrogen Corp. Cat #25030-081, Carlsbad, Calif., USA), and Antibiotics-Antimycotics (Invitrogen Corp. Cat #15240-062, Carlsbad, Calif., USA) was used as the medium (Neurobasal/B27/2-ME). However, the above Neurobasal medium not supplemented with 2-ME (Neurobasal/B27) was used for the assay. The cells were redispersed by mild pipetting of the cell mass to which the medium was added. The cell dispersion was filtered through a 40-μm nylon mesh (Cell Strainer, Cat #35-2340, Becton Dickinson Labware, Franklin Lakes, N.J., USA) to remove the remaining cell mass, and thus a neuronal cell suspension was obtained. The neuronal cell suspension was diluted with the medium and then plated in a volume of 100 μl/well at an initial cell density of 5×10^5 cells/cm^2 in a 96-well polystyrene culture plate pre-coated with poly-L or D-lysine (Falcon Cat #35-3075, Becton Dickinson Labware, Franklin Lakes, N.J., USA coated with poly-L-lysine using the method shown below, or BIOCOAT™ cell environments Poly-D-lysine cell ware 96-well plate, Cat #35-6461, Becton Dickinson Labware, Franklin Lakes, N.J., USA). Poly-L-lysine coating was carried out as follows. 100 μg/ml of a poly-L-lysine (SIGMA P2636, St. Louis, Mo., USA) solution was aseptically prepared with a 0.15 M borate buffer (pH 8.5). 100 μl/well of the solution was added to the 96-well polystyrene culture plate and incubated at room temperature for one or more hours or at 4° C. overnight or longer. The coated 96-well polystyrene culture plate was washed with sterile water four or more times, and then dried or rinsed with, for example, sterile PBS or medium, and used for cell plating. The plated cells were cultured in the culture plate at 37° C. in 5% CO2-95% air for one day. Then, the total amount of the medium was replaced with a fresh Neurobasal™/B27/2-ME medium, and then the cells were cultured for further three days.
The drug was added to the culture plate on Day 4 of culture as follows. The total amount of the medium was removed from the wells, and 180 μl/well of Neurobasal medium not containing 2-ME and containing 2% B-27 (Neurobasal/B27) was added thereto. A solution of the test compound in dimethyl sulfoxide (hereinafter abbreviated as DMSO) was diluted with Neurobasal/B27 at 10-fold of the final concentration. 20 μl/well of the dilution was added to and sufficiently mixed with the medium. The final DMSO concentration was 1% or less. Only DMSO was added to the control group.
The cells were cultured for three days after addition of the compound, and the total amount of the medium was collected. […]

**Q.** COc1nc(/C=C/c2nc3n(n2)CCC(C)N3c2ccccc2C(F)(F)F)ccc1-n1cnc(C)c1 (single isomer, unassigned; (+)) [Example 373, (+)-2-{(E)-2-[6-methoxy-5-(4-methyl-1H-imidazol-1-yl)pyridin-2-yl]vinyl}-5-methyl-4-(2-trifluoromethylphenyl)-4,5,6,7-tetrahydro-[1,2,4]triazolo[1,5-a]pyrimidine] was tested. Which pIC50 did it give?
**A.** The pIC50 was 7.54.

**Q.** With COc1cc(/C=C(\F)c2nc3n(n2)CCCC3(O)c2cc(F)c(F)c(F)c2)ccc1-n1cnc(C)c1 (single isomer, unassigned; (-)) [Example 94, (−)-2-{(Z)-1-fluoro-2-[3-methoxy-4-(4-methyl-1H-imidazol-1-yl)phenyl]vinyl}-8-(3,4,5-trifluorophenyl)-5,6,7,8-tetrahydro[1,2,4]triazolo[1,5-a]pyridin-8-ol] as the compound, how does the pIC50 read?
**A.** The pIC50 was 7.28.

**Q.** With COc1cc(/C=C/c2nc3n(n2)CCC3c2ccccc2)ccc1-n1cnc(C)c1 (single isomer, unassigned; (-)) [Example 141, (−)-2-{(E)-2-[3-methoxy-4-(4-methyl-1H-imidazol-1-yl)phenyl]vinyl}-7-phenyl-6,7-dihydro-5H-pyrrolo[1,2-b][1,2,4]triazole] as the compound, how does the pIC50 read?
**A.** The pIC50 was 7.44.

**Q.** COc1nc(/C=C/c2nc3n(n2)CCOC3c2ccc(Cl)cc2)ccc1-n1cnc(C)c1 (single isomer, unassigned; (-)) [Example 262, (−)-8-(4-chlorophenyl)-2-{(E)-2-[6-methoxy-5-(4-methyl-1H-imidazol-1-yl)pyridin-2-yl]vinyl}-5,6-dihydro-8H-[1,2,4]triazolo[5,1-c][1,4]oxazine] was tested. Which pIC50 did it give?
**A.** The pIC50 was 7.13.

**Q.** COc1nc(/C=C/c2nc3n(n2)CCCC3c2cc(F)cc(F)c2)ccc1-n1cnc(C)c1 (single isomer, unassigned; (-)) [Example 365, (−)-8-(3,5-difluorophenyl)-2-{(E)-2-[6-methoxy-5-(4-methyl-1H-imidazol-1-yl)pyridin-2-yl]vinyl}-5,6,7,8-tetrahydro-[1,2,4]triazolo[1,5-a]pyridine] was tested. Which pIC50 did it give?
**A.** Its pIC50 is 7.68.

**Q.** COc1nc(/C=C/c2nc3n(n2)CCOC3c2ccccc2C(F)(F)F)ccc1-n1cnc(C)c1 (single isomer, unassigned; (-)) [Example 368, (−)-2-{(E)-2-[6-methoxy-5-(4-methyl-1H-imidazol-1-yl)pyridin-2-yl]vinyl}-8-(2-trifluoromethylphenyl)-5,6-dihydro-8H-[1,2,4]triazolo[5,1-c][1,4]oxazine] was tested. Which pIC50 did it give?
**A.** The pIC50 was 7.60.

**Q.** COc1nc(/C=C/c2nc3n(n2)CCC3c2cc(F)cc(F)c2)ccc1-n1cnc(C)c1 (single isomer, unassigned; (-)) [Example 384, (−)-7-(3,5-difluorophenyl)-2-{(E)-2-[6-methoxy-5-(4-methyl-1H-imidazol-1-yl)pyridin-2-yl]vinyl}-6,7-dihydro-5H-pyrrolo[1,2-b][1,2,4]triazole] was tested. Which pIC50 did it give?
**A.** The pIC50 was 7.44.

**Q.** CCCCC(O)c1ccc(C2CCCn3nc(/C=C/c4ccc(-n5cnc(C)c5)c(OC)c4)nc32)cc1 (stereo not shown) [Example 19, 1-{4-{2-{(E)-2-[3-methoxy-4-(4-methyl-1H-imidazol-1-yl)phenyl]vinyl}-5,6,7,8-tetrahydro[1,2,4]triazolo[1,5-a]pyridin-8-yl}phenyl}pentan-1-ol] was tested. Which pIC50 did it give?
**A.** The pIC50 was 7.37.

**Q.** How did the pIC50 turn out when COc1nc(/C=C/c2nc3n(n2)CC[C@@H](C)N3c2ccc(F)cc2F)ccc1-n1cnc(C)c1 [Example 371, (R)-4-(2,4-difluorophenyl)-2-{(E)-2-[6-methoxy-5-(4-methyl-1H-imidazol-1-yl)pyridin-2-yl]vinyl}-5-methyl-4,5,6,7-tetrahydro-[1,2,4]triazolo[1,5-a]pyrimidine] was run?
**A.** The pIC50 was 7.57.

**Q.** COc1nc(/C=C/c2nc3n(n2)CC[C@H]3c2ccccc2)ccc1-n1cnc(C)c1 [Example 376, (S)-2-{(E)-2-[6-methoxy-5-(4-methyl-1H-imidazol-1-yl)pyridin-2-yl]vinyl}-7-phenyl-6,7-dihydro-5H-pyrrolo[1,2-b][1,2,4]triazole] was tested. Which pIC50 did it give?
**A.** Its pIC50 is 7.55.

**Q.** With COc1nc(/C=C/c2nc3n(n2)CC[C@H]3c2ccc(F)c(F)c2)ccc1-n1cnc(C)c1 [Example 380, (S)-7-(3,4-difluorophenyl)-2-{(E)-2-[6-methoxy-5-(4-methyl-1H-imidazol-1-yl)pyridin-2-yl]vinyl}-6,7-dihydro-5H-pyrrolo[1,2-b][1,2,4]triazole] as the compound, how does the pIC50 read?
**A.** The pIC50 was 7.54.

**Q.** COc1nc(/C=C/c2nc3n(n2)CC[C@H]3c2ccccc2C(F)(F)F)ccc1-n1cnc(C)c1 [Example 390, (S)-2-{(E)-2-[6-methoxy-5-(4-methyl-1H-imidazol-1-yl)pyridin-2-yl]vinyl}-7-(2-trifluoromethylphenyl)-6,7-dihydro-5H-pyrrolo[1,2-b][1,2,4]triazole] was tested. Which pIC50 did it give?
**A.** Its pIC50 is 7.59.

**Q.** COc1nc(/C=C/c2nc3n(n2)CC[C@H]3c2cc(F)ccc2C(F)(F)F)ccc1-n1cnc(C)c1 [Example 392, (S)-7-(5-fluoro-2-trifluoromethylphenyl)-2-{(E)-2-[6-methoxy-5-(4-methyl-1H-imidazol-1-yl)pyridin-2-yl]vinyl}-6,7-dihydro-5H-pyrrolo[1,2-b][1,2,4]triazole] was tested. Which pIC50 did it give?
**A.** Its pIC50 is 7.66.
